According to patent publication US8530460B2, “Azetidine derivatives” (Boehringer Ingelheim International GmbH, priority 2011, dated 2013):

Molecular target: human ACC2 (Homo sapiens (Human), UniProt O00763)
Assay: ACC2 assay (spectrophotometric 384 well assay, NADH-linked coupled lactate dehydrogenase/pyruvate kinase)
Format: biochemical
Conditions: hACC2 construct lacking 128 N-terminal amino acids; 25° C., 340 nm, 15 minutes
Experimental: Spectrophotometric 384 Well Assay
Malonyl CoA formation by acetyl CoA carboxylases is stoichometrically linked to the consumption of ATP. ACC2 activity is measured in a NADH-linked kinetic method measuring ADP generated during the ACC reaction using a coupled lactate dehydrogenase/pyruvate kinase reaction.
For biological testing, a human ACC2 construct which lacks the 128 amino acids at the N-terminus for increased solubility (nt 385-6966 in Genbank entry AJ575592) is cloned. The protein is then expressed in insect cells using a baculoviral expression system. Protein purification is performed by anion exchange.
All compounds are dissolved in dimethyl sulfoxide (DMSO) to a concentration of 10 mM.
Assay reactions are then carried out in 384-well plates, with hACC2 in an appropriate dilution and at final assay concentrations (f.c.) of 100 mM Tris (pH 7.5), 10 mM trisodium citrate, 25 mM KHCO3, 10 mM MgCl2, 0.5 mg/ml BSA, 3.75 mM reduced L-glutathione, 15 U/ml lactate dehydrogenase, 0.5 mM phosphoenolpyruvate, 15 U/ml pyruvate kinase, compounds at different concentrations at final DMSO concentrations of 1%.
The enzymatic reaction is then started by addition of a mixture of NADH, acetyl Coenzyme A (both 200 μM f.c.) and ATP (500 uM f.c.). The decrease of the optical density (slope S) is then determined at 25° C. at a wavelength of 340 nm over 15 minutes in a spectrophotometric reader.
Each assay microtiter plate contains wells with vehicle instead of compound as controls for the non-inhibited enzyme (100% CTL; ‘HIGH’) and wells without acetyl-CoA as controls for non-specific NADH degradation (0% CTL; ‘LOW’).
The slope S is used for calculation of % CTL=(S(compound)−S(‘LOW’))/(S(‘HIGH’)—S(‘LOW’))*100. Compounds will give values between 100% CTL (no inhibition) and 0% CTL (complete inhibition).
For IC50 value determination, the sample slope in the presence of the test compound after subtraction of the low controls (S(compound)−S(‘LOW’)) are used.
An IC50 value is derived from the compound slopes at different dosages after subtraction of the low controls (S(compound)−S(‘LOW’)) by non-linear regression curve fitting (equation y=(A+((B−A)/(1+((C/x)^D))))).

Chain of human ACC2 (O00763 129-2458): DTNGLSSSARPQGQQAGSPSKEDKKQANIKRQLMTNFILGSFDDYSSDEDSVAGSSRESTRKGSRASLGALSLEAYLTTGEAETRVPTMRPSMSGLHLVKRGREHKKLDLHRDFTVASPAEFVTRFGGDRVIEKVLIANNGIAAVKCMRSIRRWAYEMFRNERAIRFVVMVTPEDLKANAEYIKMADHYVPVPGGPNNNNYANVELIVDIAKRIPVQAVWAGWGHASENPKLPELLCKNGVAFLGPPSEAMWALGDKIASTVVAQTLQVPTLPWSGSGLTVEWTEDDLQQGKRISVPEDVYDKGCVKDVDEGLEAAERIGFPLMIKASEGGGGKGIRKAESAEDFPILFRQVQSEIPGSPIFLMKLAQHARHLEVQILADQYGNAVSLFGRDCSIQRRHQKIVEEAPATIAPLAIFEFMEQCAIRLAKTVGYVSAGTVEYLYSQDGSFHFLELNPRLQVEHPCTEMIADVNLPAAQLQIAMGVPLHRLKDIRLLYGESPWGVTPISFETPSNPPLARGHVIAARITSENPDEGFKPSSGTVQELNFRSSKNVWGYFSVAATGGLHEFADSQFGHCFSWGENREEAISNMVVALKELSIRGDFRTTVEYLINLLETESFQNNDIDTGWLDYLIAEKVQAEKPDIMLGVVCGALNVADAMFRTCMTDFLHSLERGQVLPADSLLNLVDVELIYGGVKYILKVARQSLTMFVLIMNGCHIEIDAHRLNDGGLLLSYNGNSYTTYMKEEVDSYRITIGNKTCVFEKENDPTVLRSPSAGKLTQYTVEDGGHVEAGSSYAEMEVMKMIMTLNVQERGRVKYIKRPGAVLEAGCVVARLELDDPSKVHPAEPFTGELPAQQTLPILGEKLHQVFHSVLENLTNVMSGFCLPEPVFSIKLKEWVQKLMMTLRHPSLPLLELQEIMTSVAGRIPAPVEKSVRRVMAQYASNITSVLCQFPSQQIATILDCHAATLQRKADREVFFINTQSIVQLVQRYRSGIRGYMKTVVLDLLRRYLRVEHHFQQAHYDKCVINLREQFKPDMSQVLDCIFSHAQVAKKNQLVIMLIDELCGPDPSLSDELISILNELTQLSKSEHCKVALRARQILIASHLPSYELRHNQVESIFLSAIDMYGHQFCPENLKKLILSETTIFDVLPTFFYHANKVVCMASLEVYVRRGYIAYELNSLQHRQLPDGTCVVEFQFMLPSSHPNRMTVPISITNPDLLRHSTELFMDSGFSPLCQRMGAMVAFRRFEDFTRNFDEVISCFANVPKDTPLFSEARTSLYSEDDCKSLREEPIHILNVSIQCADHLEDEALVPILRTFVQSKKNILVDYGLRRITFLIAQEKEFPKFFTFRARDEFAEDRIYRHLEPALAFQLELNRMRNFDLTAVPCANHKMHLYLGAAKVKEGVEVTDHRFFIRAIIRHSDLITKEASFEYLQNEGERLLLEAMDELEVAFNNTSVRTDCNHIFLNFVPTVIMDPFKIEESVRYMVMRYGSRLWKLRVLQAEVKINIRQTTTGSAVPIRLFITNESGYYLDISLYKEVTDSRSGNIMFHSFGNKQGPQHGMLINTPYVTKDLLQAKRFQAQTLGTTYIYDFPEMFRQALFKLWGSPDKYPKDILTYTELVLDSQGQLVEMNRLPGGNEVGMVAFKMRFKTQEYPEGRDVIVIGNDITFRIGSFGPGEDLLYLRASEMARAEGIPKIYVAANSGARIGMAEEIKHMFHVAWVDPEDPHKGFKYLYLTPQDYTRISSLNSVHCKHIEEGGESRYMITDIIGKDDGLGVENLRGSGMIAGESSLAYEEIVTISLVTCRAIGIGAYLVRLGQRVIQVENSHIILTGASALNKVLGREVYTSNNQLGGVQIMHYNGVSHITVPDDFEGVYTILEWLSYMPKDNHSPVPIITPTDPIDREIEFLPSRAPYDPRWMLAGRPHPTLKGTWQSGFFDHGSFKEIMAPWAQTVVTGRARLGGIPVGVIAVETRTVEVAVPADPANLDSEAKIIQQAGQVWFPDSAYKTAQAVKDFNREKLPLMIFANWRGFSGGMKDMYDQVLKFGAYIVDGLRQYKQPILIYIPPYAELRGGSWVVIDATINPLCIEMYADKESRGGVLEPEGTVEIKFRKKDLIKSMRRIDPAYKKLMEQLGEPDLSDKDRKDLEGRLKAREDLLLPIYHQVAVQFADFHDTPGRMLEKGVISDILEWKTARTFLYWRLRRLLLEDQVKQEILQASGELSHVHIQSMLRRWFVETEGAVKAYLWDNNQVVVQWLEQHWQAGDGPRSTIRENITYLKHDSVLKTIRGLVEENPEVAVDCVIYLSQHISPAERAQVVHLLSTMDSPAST

Row | SMILES | IC50 [nM]
1 | CC(=O)N[C@@H](C)c1ccc(OC2CN(c3ccnc(C(F)(F)F)n3)C2)cc1 [Example 4.9] | 720
2 | CC(=O)N[C@@H](C)c1ccc(OC2CN(c3nccc(C(F)(F)F)c3F)C2)cc1 [Example 4.10] | 370
3 | CCOc1cccc(N2CC(Oc3ccc([C@H](C)NC(C)=O)cc3)C2)n1 [Example 4.11] | 3620
4 | CC(=O)N[C@@H](C)c1ccc(OC2CN(c3ccc(C4(C#N)CC4)cn3)C2)cc1 [Example 4.12] | 1060
5 | CC(=O)N[C@@H](C)c1ccc(OC2CN(c3nc4ccccc4s3)C2)cc1 [Example 4.13] | 250
6 | CC(=O)N[C@@H](C)c1ccc(OC2CN(c3cc(C(F)(F)F)ncn3)C2)cc1 [Example 4.14] | 6110
7 | CC(=O)N[C@@H](C)c1ccc(OC2CN(c3ccc4cc(Cl)ccc4n3)C2)cc1 [Example 4.15] | 690
8 | CC(=O)N[C@@H](C)c1ccc(OC2CN(c3nccc(C(F)(F)F)n3)C2)cc1 [Example 4.16] | 470
9 | CC(=O)N[C@@H](C)c1ccc(OC2CN(c3ccc(Br)cn3)C2)cc1 [Example 4.17] | 290
10 | CC(=O)N[C@@H](C)c1ccc(OC2CN(c3cc(Br)ccn3)C2)cc1 [Example 4.18] | 1800
11 | CC(=O)N[C@@H](C)c1ccc(OC2CN(c3ccc(C(F)(F)F)cn3)C2)cc1 [Example 4.19] | 200
12 | CC(=O)N[C@@H](C)c1ccc(OC2CN(c3cc(C(F)(F)F)ccn3)C2)cc1 [Example 4.20] | 770
13 | CC(=O)N[C@@H](C)c1ccc(OC2CN(c3cccc(C(F)(F)F)n3)C2)cc1 [Example 4.21] | 410
14 | COc1ccc2nc(N3CC(Oc4ccc([C@H](C)NC(C)=O)cc4)C3)ccc2c1 [Example 4.22] | 450
15 | CC(=O)N[C@@H](C)c1ccc(OC2CN(c3ncc4nc(-c5ccccc5)oc4n3)C2)cc1 [Example 4.23] | 1180
16 | CC(=O)N[C@@H](C)c1ccc(OC2CN(c3ncc(Cl)cn3)C2)cc1 [Example 4.24] | 390
17 | CC(=O)N[C@@H](C)c1ccc(OC2CN(c3noc4ccccc34)C2)cc1 [Example 4.25] | 750
18 | CC(=O)N[C@@H](C)c1ccc(OC2CN(c3ncc4nc(-c5ccsc5)oc4n3)C2)cc1 [Example 4.26] | 13300
19 | CC(=O)N[C@@H](C)c1ccc(OC2CN(c3ncc(C(C)(C)C)cn3)C2)cc1 [Example 4.27] | 570
20 | CC(=O)N[C@@H](C)c1ccc(OC2CN(c3cnc4ccccc4n3)C2)cc1 [Example 4.28] | 360

Row | SMILES | IC50 [nM]
21 | CC(=O)N[C@@H](C)c1ccc(OC2CN(c3ccnc(C(F)(F)F)c3)C2)cc1 [Example 4.29] | 1170
22 | CC(=O)N[C@@H](C)c1ccc(OC2CN(c3ncc(C(F)(F)F)cc3F)C2)cc1 [Example 4.31] | 190
23 | CC(=O)N[C@@H](C)c1ccc(OC2CN(c3ccc(Cl)c(C(F)(F)F)n3)C2)cc1 [Example 4.32] | 100
24 | CCOC(=O)c1cnc(N2CC(Oc3ccc([C@H](C)NC(C)=O)cc3)C2)nc1C(F)(F)F [Example 4.33] | 1730
25 | CC(=O)N[C@@H](C)c1ccc(OC2CN(c3ncc(OC(C)C)cn3)C2)cc1 [Example 4.34] | 940
26 | CC(=O)N[C@@H](C)c1ccc(OC2CN(c3ccc(Br)c(C#N)n3)C2)cc1 [Example 4.35] | 1110
27 | CCOC(=O)c1cc(C#N)c(N2CC(Oc3ccc([C@H](C)NC(C)=O)cc3)C2)nc1C(F)(F)F [Example 4.36] | 1140
28 | CC(=O)N[C@@H](C)c1ccc(OC2CN(c3ccc(F)c(C(F)(F)F)n3)C2)cc1 [Example 4.37] | 290
29 | CC(=O)N[C@@H](C)c1ccc(OC2CN(c3nc4ccccc4nc3C)C2)cc1 [Example 4.38] | 3050
30 | CC(=O)N[C@@H](C)c1ccc(OC2CN(c3cncc(C(F)(F)F)c3)C2)cc1 [Example 4.40] | 1050
31 | CC(=O)N[C@@H](C)c1ccc(OC2CN(c3nc(-c4ccccc4)no3)C2)cc1 [Example 4.41] | 3480
32 | CC(=O)N[C@@H](C)c1ccc(OC2CN(c3ncc(OCC4CC4(F)F)cn3)C2)cc1 (some centres unmarked) [Example 4.42] | 530
33 | CC(=O)N[C@@H](C)c1ccc(OC2CN(c3nc(C(F)(F)F)ccc3F)C2)cc1 [Example 4.43] | 530
34 | CC(=O)N[C@@H](C)c1ccc(OC2CN(c3ncc(C4CC4)cn3)C2)cc1 [Example 5.1, (S)—N-(1-(4-(1-(5-Cyclopropylpyrimidin-2-yl)azetidin-3-yloxy)phenyl)ethyl)acetamide] | 170
35 | CC(=O)N[C@@H](C)c1ccc(OC2CN(c3ncc(C)cn3)C2)cc1 [Example 5.2] | 2180
36 | CC(=O)N[C@@H](C)c1ccc(OC2CN(c3ncc(-c4ccc(F)cc4)cn3)C2)cc1 [Example 6.1] | 90
37 | COc1cc(-c2cnc(N3CC(Oc4ccc([C@H](C)NC(C)=O)cc4)C3)nc2)ccn1 [Example 6.2] | 1740
38 | CC(=O)NC(C)c1ccc(OC2CN(c3ncc(C4CC4)cn3)C2)cc1 (centres unmarked) [Example 6.3] | 150
39 | CCCOc1ccc(N2CC(Oc3ccc([C@H](C)NC(=O)CF)cc3)C2)c(OC)c1 [Example 8.2] | 2370

Now from value to compound:

Row | IC50 [nM] | SMILES
40 | 1440 | CC(=O)N[C@@H](C)c1ccc(OC2CN(c3cccc(OCC4CC4)c3)C2)cc1 [Example 7.1]
41 | 1250 | CC(=O)N[C@@H](C)c1ccc(OC2CN(c3cccc(OCC4CC4(F)F)c3)C2)cc1 (some centres unmarked) [Example 7.2]
42 | 780 | CC(=O)N[C@@H](C)c1ccc(OC2CN(c3cccc(OC4CCCC4)c3)C2)cc1 [Example 7.3]
43 | 7700 | CCCOc1ccc(N2CC(Oc3ccc([C@H](C)NC(=O)C4CC4)cc3)C2)c(OC)c1 [Example 8.1, (S)—N-(1-(4-(1-(2-Methoxy-4-propoxyphenyl)azetidin-3-yloxy)phenyl)ethyl)cyclopropanecarboxamide]
44 | 1090 | CCCOc1ccc(N2CC(Oc3ccc([C@H](C)NC(=O)c4cn[nH]c4)cc3)C2)c(OC)c1 [Example 8.3]
45 | 430 | CCCOc1ccc(N2CC(Oc3ccc([C@H](C)NC(=O)c4cncs4)cc3)C2)c(OC)c1 [Example 8.4]
46 | 160 | C[C@H](NC(=O)c1cn[nH]c1)c1ccc(OC2CN(c3ncc(C4CC4)cn3)C2)cc1 [Example 8.5]
47 | 1770 | C[C@H](NC(=O)CC#N)c1ccc(OC2CN(c3ncc(C4CC4)cn3)C2)cc1 [Example 8.6]
48 | 50 | CCOc1ccc(N2CC(Oc3ccc([C@H](C)NC(=O)c4cn[nH]c4)cc3)C2)cc1 [Example 8.7]
49 | 430 | CCOc1ccc(N2CC(Oc3ccc([C@H](C)NC(=O)CC#N)cc3)C2)cc1 [Example 8.8]
50 | 1150 | CCOc1ccc(N2CC(Oc3ccc([C@H](C)NC(=O)C4(C)CC4)cc3)C2)cc1 [Example 8.9]
51 | 370 | CCOc1ccc(N2CC(Oc3ccc([C@H](C)NC(=O)c4cnc(NC(=O)CO)s4)cc3)C2)cc1 [Example 8.10]
52 | 2840 | CCOc1ccc(N2CC(Oc3ccc([C@H](C)NC(=O)c4cccc(NC(C)=O)c4)cc3)C2)cc1 [Example 8.11]
53 | 1000 | CCOc1ccc(N2CC(Oc3ccc([C@H](C)NC(=O)C4(C#N)CC4)cc3)C2)cc1 [Example 8.12]
54 | 450 | C=CCC(=O)N[C@@H](C)c1ccc(OC2CN(c3ccc(OCC)cc3)C2)cc1 [Example 8.13]
55 | 2250 | CCOc1ccc(N2CC(Oc3ccc([C@H](C)NC(=O)c4ccnnc4)cc3)C2)cc1 [Example 8.14]
56 | 1740 | CCOc1ccc(N2CC(Oc3ccc([C@H](C)NC(=O)CC4CC4)cc3)C2)cc1 [Example 8.15]
57 | 700 | CCOc1ccc(N2CC(Oc3ccc([C@H](C)NC(=O)C(C)C)cc3)C2)cc1 [Example 8.16]
58 | 2790 | CCOc1ccc(N2CC(Oc3ccc([C@H](C)NC(=O)CO)cc3)C2)cc1 [Example 8.17]
59 | 740 | CCOc1ccc(N2CC(Oc3ccc([C@H](C)NC(=O)CC(F)(F)F)cc3)C2)cc1 [Example 8.18]
60 | 690 | CCOc1ccc(N2CC(Oc3ccc([C@H](C)NC(=O)C4CC(F)C4)cc3)C2)cc1 (some centres unmarked) [Example 8.19]
61 | 480 | CCOc1ccc(N2CC(Oc3ccc([C@H](C)NC(=O)C4CCC4)cc3)C2)cc1 [Example 8.20]
62 | 300 | CCOc1ccc(N2CC(Oc3ccc([C@H](C)NC(=O)C4(C(F)(F)F)CC4)cc3)C2)cc1 [Example 8.21]
63 | 1870 | CCOc1ccc(N2CC(Oc3ccc([C@H](C)NC(=O)c4nc(C)sc4C)cc3)C2)cc1 [Example 8.22]
64 | 5790 | CCOc1ccc(N2CC(Oc3ccc([C@H](C)NC(=O)CN(C)C)cc3)C2)cc1 [Example 8.23]
65 | 3940 | CCOc1ccc(N2CC(Oc3ccc([C@H](C)NC(=O)Cc4cccnc4)cc3)C2)cc1 [Example 8.24]
